Earlier results in patent US20020127714A1, “Inhibitors of alternative alleles of genes encoding products that mediate cell response to environmental changes” (Variagenics, Inc., a Delaware corporation, priority 1998, published 2002).
Where two headings read alike, the source gives them in different places.

How the values were obtained:
serum asparagine = conditions: within hours of injection
MGMT 160 arginine allele = molecular target: T1, MGMT 160 arginine allele (Homo sapiens, UniProt P16455, G160R); conditions: 160arg versus 160gly form of MGMT; also seen as reduced production of guanine from O6-benzyl[8-3H]guanine
T1 sequence (P16455 1-207 G160R): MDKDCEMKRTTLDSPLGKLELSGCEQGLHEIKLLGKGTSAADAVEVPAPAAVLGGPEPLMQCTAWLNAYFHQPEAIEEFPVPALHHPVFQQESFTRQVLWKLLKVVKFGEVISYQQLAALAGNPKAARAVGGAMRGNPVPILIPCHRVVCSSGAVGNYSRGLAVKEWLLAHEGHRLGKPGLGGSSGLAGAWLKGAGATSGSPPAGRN

Compound: O=c1[nH]cc(F)c(=O)[nH]1 [5-FU, 5-fluorouracil]
- half life of 5-FU (normals): 0.13 to 0.333 h
- half life of 5-FU (patients homozygous for mutant DPD alleles (DPD deficiency)): > 2.5 h

Compound: L-asparaginase
- blood levels of asparagine (serum asparagine): undetectable levels

Compound: Nc1nc(OCc2ccccc2)c2nc[nH]c2n1 [O6 benzylguanine, O6-benzylguanine]
- resistance of the 160 arginine allele to inactivation, measured as an increase in the ED50 (MGMT 160 arginine allele): at least 20 fold
